From article PMC7534389, “Thiazolidin-2-cyanamides derivatives as novel potent Escherichia coli β-glucuronidase inhibitors and their structure–inhibitory activity relationships” (Journal of Enzyme Inhibition and Medicinal Chemistry, 2020)
Where “and” joins values, the source holds several entries; their conditions need not be identical. Equal values may be shown once. Read-outs that look alike come from different tables or passages of the source.

How the values were obtained:
[1] = biological target: T1, Escherichia coli β-glucuronidase (EcGUS) (Escherichia coli, UniProt P05804); test: EcGUS-mediated PNPG hydrolysis inhibition assay (screening at 10 µM and IC50); assay type: biochemical
T1 construct: inferred from the pET28a vector and Ni-NTA purification; made in house; host or cells: E. coli BL21 (DE3)
T1 sequence (P05804 whole entry): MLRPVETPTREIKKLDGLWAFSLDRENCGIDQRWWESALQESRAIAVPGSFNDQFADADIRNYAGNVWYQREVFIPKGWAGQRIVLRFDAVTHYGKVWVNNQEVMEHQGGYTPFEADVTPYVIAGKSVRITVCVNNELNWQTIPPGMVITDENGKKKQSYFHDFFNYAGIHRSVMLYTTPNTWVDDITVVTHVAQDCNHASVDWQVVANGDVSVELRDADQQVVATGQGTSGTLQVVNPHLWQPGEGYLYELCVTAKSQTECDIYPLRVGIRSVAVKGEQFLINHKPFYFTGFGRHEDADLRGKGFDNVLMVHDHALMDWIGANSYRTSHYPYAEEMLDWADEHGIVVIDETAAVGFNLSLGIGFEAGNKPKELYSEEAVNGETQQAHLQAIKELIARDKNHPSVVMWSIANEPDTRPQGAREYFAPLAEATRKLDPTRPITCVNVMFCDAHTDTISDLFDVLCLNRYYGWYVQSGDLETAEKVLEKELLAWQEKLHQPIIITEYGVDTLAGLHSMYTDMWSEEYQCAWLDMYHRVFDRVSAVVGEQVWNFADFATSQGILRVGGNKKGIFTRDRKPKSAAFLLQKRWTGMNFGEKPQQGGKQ
Procedure: EcGUS was prepared according to our previous report. The recombinant strain were incubated in 200 mL of LB broth (Tryptone, 10 g/L; yeast extract, 5 g/L; NaCl, 10 g/L; pH 7.0) containing 1% kanamycin at 220 rpm and 37 °C until OD600 reached 0.5–0.6. Afterward, IPTG (final concentration, 0.5 mM) was added and the culture was incubated at 220 rpm and 16 °C for 16 h to induce the expression of β-glucuronidase. The cells were collected by centrifugation and suspended in PBS buffer (pH 7.4), and then applied to extract the enzyme by sonication. Finally, pure EcGUS was obtained from the cell-free extracts through a Ni-NTA column (EMD Millipore Corp., MA, USA). Protein concentration was determined using the BCA Protein Assay Kit (Beyotime, Shanghai, China) according to the manufacturer’s instruction, and its purity was determined by SDS-PAGE.
Thirteen thiazolidin-2-cyanamide derivatives were subjected to screening for potent EcGUS inhibitor. The inhibitory effects of these compounds were determined by measuring the PNP formation generated from PNPG by EcGUS. Briefly, the assays were conducted in 96-well flat-bottomed tissue culture plates (Nunc, Denmark) with a total volume of 100 µL which consisted of 10 µL EcGUS (final concentration, 2 µg/mL), 70 µL PBS buffer (pH 7.4), 10 µL test compound or DSL (final concentration, 10 µM) and 10 µL PNPG (final concentration, 250 µM). DSL was used as a positive control, and 1%DMSO was used as blank control. All reactions were performed in triplicate and the produced PNP was monitored by measuring absorbance at 405 nm in a plate reader (SpectraMax Plus384, Molecular Devices, CA, USA) after incubating at 37 °C for 30 min. The PNP concentration was determined from a standard curve (0, 10, 20, 40, 60, 80, 100, 120 µM PNP) in PBS buffer (pH 7.4). Relative activity was defined as a percent of PNP formation in the presence of test compound within 30 min compared with the blank control group.
IC50 values of the 13 thiazolidin-2-cyanamide derivatives against EcGUS were investigated using similar assays as described in Section 2.4. The reaction conditions are as follows: 10 µL pure enzyme (final concentration, 2 µg/mL), 70 µL PBS buffer (pH 7.4), 10 µL test compound or DSL (final concentration, 0.001–5000 µM) and 10 µL PNPG (final concentration, 250 µM) incubating at 37 °C for 30 min. The IC50 values were calculated by plotting the concentration–response curve using GraphPad Prism 6.0 (GraphPad Software, La Jolla, CA).
(§1) All experiments were carried out in triplicate and repeated at least two times. All data were expressed as mean ± standard deviation (SD). The IC50 values were defined as the concentration of inhibitor that is required for 50% inhibition and evaluated by nonlinear regression using GraphPad Prism 6.0 software (GraphPad Software, La Jolla, CA).

[2] = biological target: T1, Escherichia coli β-glucuronidase (EcGUS); test: Inhibition kinetic analysis (Lineweaver–Burk plots, Ki) against EcGUS; assay type: biochemical; conditions: for Ki: PNPG 0.2-1.0 mM, nonlinear regression; for Inhibition type: from intersection point in Lineweaver–Burk plots
Procedure: To further characterise the inhibition behaviour of discovered inhibitors, multiple concentrations of compounds (0.5–12 µM) or DSL (50–100 µM) and PNPG (0.2, 0.3, 0.5, and 1.0 mM) were applied to determine the corresponding reaction rates. The inhibition type was evaluated through determining the intersection point in Lineweaver–Burk plots, and the Ki values were calculated by nonlinear regression of different inhibition types using the GraphPad Prism 6.0 (GraphPad Software, La Jolla, CA).
as §1

EcGUS = conditions: cited from earlier work
[3] = 10 µM compound, PNPG 250 µM, EcGUS 2 µg/mL, PBS pH 7.4, 37 °C, 30 min, read-out: Inhibition rate at 10 μM
[4] = PNPG 250 µM, EcGUS 2 µg/mL, PBS pH 7.4, 37 °C, 30 min
[5] = pH 7.4, read-out: Inhibition rate at 10 μM

SMILES | melting point [°C] | inhibition at 10 µM [1, 3] [%] | IC50 [1, 4] [µM] | Ki [2] | Inhibition type [2] | inhibition at 10 µM [1, 5] [%] | Inhibition type against EcGUS (EcGUS)
N#C/N=C1\SCCN1C(=O)c1ccc(-c2ccccc2Cl)o1 [Compound 1] | 101 to 102 | 77.2 ± 0.6 | 5.7 ± 0.6 | < 3.5 µM and 3.5 µM | competitive EcGUS inhibitors |  | 
N#C/N=C1\SCCN1C(=O)c1ccc(-c2cccc(Cl)c2)o1 [Compound 2] | 166 to 167 | 95.2 ± 0.3 | 1.2 ± 0.2 | < 3.5 µM and 0.7 µM | competitive EcGUS inhibitors |  | 
N#C/N=C1\SCCN1C(=O)c1ccc(-c2ccc(Cl)cc2)o1 [Compound 3] | 149 to 150 | 80.2 ± 1.8 | 4.7 ± 0.6 | < 3.5 µM and 2 µM | competitive EcGUS inhibitors |  | 
N#C/N=C1\SCCN1C(=O)c1ccc(-c2ccccc2F)o1 [Compound 4] | 137 to 138 | 61.6 ± 0.6 | 11.9 ± 1.5 |  |  |  | 
N#C/N=C1\SCCN1C(=O)c1ccc(-c2ccc(F)cc2)o1 [Compound 5] | 129 to 130 | 66.5 ± 1.2 | 7.3 ± 0.7 |  |  |  | 
N#C/N=C1\SCCN1C(=O)c1ccc(-c2ccc(F)cc2F)o1 [Compound 6] | 140 to 141 | 43.9 ± 0.7 | 23.1 ± 1.5 |  |  |  | 
N#C/N=C1\SCCN1C(=O)c1ccc(-c2c(F)cccc2F)o1 [Compound 7] | 136 to 137 | 64.1 ± 1.2 | 9.3 ± 1.1 |  |  |  | 
N#C/N=C1\SCCN1C(=O)c1ccc(-c2ccccc2[N+](=O)[O-])o1 [Compound 8] | 135 to 136 |  | < 10 |  |  | 31.4 ± 1.8 | 
N#C/N=C1\SCCN1C(=O)c1ccc(-c2ccc([N+](=O)[O-])cc2)o1 [Compound 9] | > 290 | 40.3 ± 3.2 | 22.2 ± 2.5 |  |  |  | 
N#C/N=C1\SCCN1C(=O)c1ccc(-c2ccc(Br)cc2)o1 [Compound 10] | 169 to 170 | 68.7 ± 1.8 | 10.8 ± 0.2 |  |  |  | 
Cc1ccc(-c2ccc(C(=O)N3CCS/C3=N\C#N)o2)cc1 [Compound 11] | 151 to 152 | 33.5 ± 2.5 | 22.3 ± 2.6 |  |  |  | 
COc1ccc(-c2ccc(C(=O)N3CCS/C3=N\C#N)o2)cc1 [Compound 12] | 151 to 152 | 49.6 ± 0.6 | 18.5 ± 2.1 |  |  |  | 
N#C/N=C1\SCCN1C(=O)c1ccc(-c2ccccc2)o1 [Compound 13] | 143 to 144 | 61.8 ± 1.3 | 10.7 ± 0.5 |  |  |  | 
O=C(O)[C@@H](O)[C@H]1OC(=O)[C@H](O)[C@H]1O [D-Saccharic acid 1,4-lactone, D-saccharic acid-1,4-lactone, reference compound] |  |  | 67.3 ± 0.6 | 30.9 ± 2.2 µM | mixed inhibitors | 11.6 ± 0.6 | 
O=c1cc(-c2ccc(O)cc2)oc2cc(O)c(O)c(O)c12 [Scutellarein] |  |  |  |  |  |  | potent competitive inhibitors
Clc1ccc2c(c1)C(N1CCNCC1)=Nc1ccccc1O2 [amoxapine] |  |  |  |  |  |  | uncompetitive inhibition
CCOC(=O)/C=C/c1ccc(O)c(O)c1 [caffeic acid ethyl ester] |  |  |  |  |  |  | potent competitive inhibitors
CC(C)=CCc1c(-c2ccc(O)cc2O)oc2c([C@H]3C=C(C)C[C@@H](c4ccc(O)cc4O)[C@@H]3C(=O)c3ccc(O)cc3O)c(O)cc(O)c2c1=O [kuwanon G] |  |  |  |  |  |  | mixed-type inhibition
CC(C)=CC[C@]12Oc3cc(O)c([C@H]4C=C(C)C[C@H](c5ccc(O)cc5O)[C@H]4C(=O)c4ccc(O)cc4O)c(O)c3C(=O)[C@@]1(O)Oc1cc(O)ccc12 [sanggenon C] |  |  |  |  |  |  | mixed-type inhibition
